Source: patent US12649751B2 (Arcus Biosciences, Inc., priority 2022, dated 2026)

These molecules were tested against HPK1 (Homo sapiens, UniProt Q92918) (assay: HPK1 Biochemical Assay (ADP-Glo luminescence; low ATP 10 μM or high ATP 200 μM)). Settings: 2 nM HPK1, 10 μM ATP; read-out: Biochemical Potency (low ATP).
Sequence of HPK1 (Q92918 whole entry, species assumed): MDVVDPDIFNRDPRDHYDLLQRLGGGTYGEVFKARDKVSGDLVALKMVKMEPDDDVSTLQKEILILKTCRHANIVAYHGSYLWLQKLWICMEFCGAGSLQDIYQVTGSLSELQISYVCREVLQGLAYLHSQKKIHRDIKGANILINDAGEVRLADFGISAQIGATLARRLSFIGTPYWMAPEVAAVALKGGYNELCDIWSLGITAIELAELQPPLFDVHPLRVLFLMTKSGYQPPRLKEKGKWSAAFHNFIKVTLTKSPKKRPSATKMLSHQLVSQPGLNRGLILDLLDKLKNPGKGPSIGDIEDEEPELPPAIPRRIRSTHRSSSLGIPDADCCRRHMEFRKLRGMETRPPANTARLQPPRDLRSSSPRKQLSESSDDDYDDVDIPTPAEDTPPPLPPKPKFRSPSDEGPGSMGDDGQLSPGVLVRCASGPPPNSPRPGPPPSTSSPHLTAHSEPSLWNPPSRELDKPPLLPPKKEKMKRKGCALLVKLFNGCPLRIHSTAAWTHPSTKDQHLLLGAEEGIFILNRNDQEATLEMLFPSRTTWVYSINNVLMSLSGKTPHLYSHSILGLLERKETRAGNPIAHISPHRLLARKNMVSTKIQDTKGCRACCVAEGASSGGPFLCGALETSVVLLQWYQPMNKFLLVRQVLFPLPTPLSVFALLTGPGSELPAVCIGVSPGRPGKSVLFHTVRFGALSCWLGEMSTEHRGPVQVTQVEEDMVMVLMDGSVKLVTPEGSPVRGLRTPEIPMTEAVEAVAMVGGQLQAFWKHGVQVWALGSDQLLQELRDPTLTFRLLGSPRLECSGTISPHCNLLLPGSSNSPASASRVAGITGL

IC50 | SMILES
< 100 nM | Cc1cccnc1-c1nc2cc(Nc3cccc(N4CC5CC(C4)N5C)n3)ncc2s1 [Example 98, 6-{6-Methyl-3,6-diazabicyclo[3.1.1]heptan-3-yl}-N-[2-(3-methylpyridin-2-yl)-[1,3]thiazolo[5,4-c]pyridin-6-yl]pyridin-2-amine]
< 100 nM | Cc1cccnc1-c1nc2cc(Nc3ccc(N4CCOCC4)c(CN4CCCCC4)n3)ncc2s1 [Example 64, N-[2-(3-Methylpyridin-2-yl)-[1,3]thiazolo[5,4-c]pyridin-6-yl]-5-(morpholin-4-yl)-6-[(piperidin-1-yl)methyl]pyridin-2-amine]
< 100 nM | Cc1cccnc1-c1nc2cc(Nc3cccc(CN4CCCC4)n3)ncc2s1 [Example 52, N-[2-(3-Methylpyridin-2-yl)-[1,3]thiazolo[5,4-c]pyridin-6-yl]-6-[(pyrrolidin-1-yl)methyl]pyridin-2-amine]
< 100 nM | Cc1ccc(Nc2cc3nc(-n4nccc4C)sc3cn2)nc1CN[C@@H]1CCOC1 [Example 199, 5-Methyl-N-[2-(5-methyl-1H-pyrazol-1-yl)-[1,3]thiazolo[5,4-c]pyridin-6-yl]-6-({[(3R)-oxolan-3-yl]amino}methyl)pyridin-2-amine]
< 100 nM | Cc1cc(Nc2cc3nc(-c4cccc(C)n4)sc3cn2)nc(O[C@H]2CCNC2)c1 [Example 163, 4-Methyl-N-[2-(6-methylpyridin-2-yl)-[1,3]thiazolo[5,4-c]pyridin-6-yl]-6-[(3S)-pyrrolidin-3-yloxy]pyridin-2-amine]
< 100 nM | CN1C[C@@H]2C[C@H]1CN2c1cncc(Nc2cc3nc(-c4cc(N5CC[C@@H](F)C5)ccn4)sc3cn2)n1 [Example 125, N-(2-{4-[(3R)-3-Dluoropyrrolidin-1-yl]pyridin-2-yl}-[1,3]thiazolo[5,4-c]pyridin-6-yl)-6-[(1S,4S)-5-methyl-2,5-diazabicyclo[2.2.1]heptan-2-yl]pyrazin-2-amine]
< 100 nM | Cc1cccnc1-c1nc2cc(Nc3ccnc(N4C[C@@H]5C[C@H]4CN5C)n3)ncc2s1 [Example 158, 2-[(1S,4S)-5-Methyl-2,5-diazabicyclo[2.2.1]heptan-2-yl]-N-[2-(3-methylpyridin-2-yl)-[1,3]thiazolo[5,4-c]pyridin-6-yl]pyrimidin-4-amine]
< 100 nM | c1cc(C2CCOCC2)c(CN2CCCC2)nc1Nc1cc2nc(N3C4COCC3C4)sc2cn1 [Example 237, N-(2-{3-Oxa-6-azabicyclo[3.1.1]heptan-6-yl}-[1,3]thiazolo[5,4-c]pyridin-6-yl)-5-(oxan-4-yl)-6-[(pyrrolidin-1-yl)methyl]pyridin-2-amine]
< 100 nM | Cc1cccnc1-c1nc2cc(Nc3ccc(N4CCC(F)(F)C4)c(N4C[C@@H]5C[C@H]4CN5C)n3)ncc2s1 [Example 281, 5-(3,3-Difluoropyrrolidin-1-yl)-6-[(1S,4S)-5-methyl-2,5-diazabicyclo[2.2.1]heptan-2-yl]-N-[2-(3-methylpyridin-2-yl)-[1,3]thiazolo[5,4-c]pyridin-6-yl]pyridin-2-amine]
100 to 1000 nM | Cc1cc(-c2nc3cc(Nc4ccc(N5CCOCC5)c(CN5CCCC5)c4)ncc3s2)ccn1 [Example 2, 2-(2-Methylpyridin-4-yl)-N-[4-(morpholin-4-yl)-3-[(pyrrolidin-1-yl)methyl]phenyl]-[1,3]thiazolo[5,4-c]pyridin-6-amine]
100 to 1000 nM | Cc1ccc(Nc2cc3nc(-c4cc(F)cc(F)c4)sc3cn2)nc1CN1CCCC1 [Example 33, N-[2-(3,5-Difluorophenyl)-[1,3]thiazolo[5,4-c]pyridin-6-yl]-5-methyl-6-[(pyrrolidin-1-yl)methyl]pyridin-2-amine]
< 100 nM | Fc1ccc(-c2nc3cc(Nc4ccc(C5CCOCC5)c(CN5CCCC5)n4)ncc3s2)cc1 [Example 223]
1000 to 5000 nM | Cc1cccnc1-c1nc2cc(Nc3cccc(N4CCN(C)C[C@@H]4C)n3)ncc2s1 [Example 95, 6-[(2S)-2,4-Dimethylpiperazin-1-yl]-N-[2-(3-methylpyridin-2-yl)-[1,3]thiazolo[5,4-c]pyridin-6-yl]pyridin-2-amine]
< 100 nM | Cc1ccc(Nc2cc3nc(-c4cnn(C)c4)sc3cn2)nc1CN1CCCC1 [Example 51, 5-Methyl-N-[2-(1-methyl-1H-pyrazol-4-yl)-[1,3]thiazolo[5,4-c]pyridin-6-yl]-6-[(pyrrolidin-1-yl)methyl]pyridin-2-amine]
< 100 nM | Cc1ccc(Nc2cc3nc(-c4ncccc4C)sc3cn2)nc1CN1CC[C@@H](F)C1 [Example 42, 6-{[(3R)-3-Fluoropyrrolidin-1-yl]methyl}-5-methyl-N-[2-(3-methylpyridin-2-yl)-[1,3]thiazolo[5,4-c]pyridin-6-yl]pyridin-2-amine]
100 to 1000 nM | Cc1ccc(N2C[C@@H]3C[C@H]2CN3C)nc1Nc1cc2nc(-c3ncccc3C)sc2cn1 [Example 284, 3-methyl-6-[(1S,4S)-5-methyl-2,5-diazabicyclo[2.2.1]heptan-2-yl]-N-[2-(3-methylpyridin-2-yl)-[1,3]thiazolo[5,4-c]pyridin-6-yl]pyridin-2-amine]
100 to 1000 nM | CN1C[C@@H]2C[C@H]1CN2c1ccnc(Nc2cc3nc(-c4cccc(S(C)(=O)=O)c4)sc3cn2)n1 [Example 244, N-[2-(3-Methanesulfonylphenyl)-[1,3]thiazolo[5,4-c]pyridin-6-yl]-4-[(1S,4S)-5-methyl-2,5-diazabicyclo[2.2.1]heptan-2-yl]pyrimidin-2-amine]
< 100 nM | Cc1cccnc1-c1nc2cc(Nc3cccc(N4CCN5CCC[C@H]5C4)n3)ncc2s1 [Example 113, 6-[(8aS)—Octahydropyrrolo[1,2-a]pyrazin-2-yl]-N-[2-(3-methylpyridin-2-yl)-[1,3]thiazolo[5,4-c]pyridin-6-yl]pyridin-2-amine]
< 100 nM | c1n[nH]cc1-c1nc2cc(Nc3ccc(N4CCOCC4)c(CN4CCCC4)n3)ncc2s1 [Example 25, 5-(Morpholin-4-yl)-N-[2-(1H-pyrazol-4-yl)-[1,3]thiazolo[5,4-c]pyridin-6-yl]-6-[(pyrrolidin-1-yl)methyl]pyridin-2-amine]
< 100 nM | Cc1cc(Nc2cc3nc(-c4ccnc(C)c4)sc3cn2)nc(O[C@H]2CCNC2)c1 [Example 168, 4-Methyl-N-[2-(2-methylpyridin-4-yl)-[1,3]thiazolo[5,4-c]pyridin-6-yl]-6-[(3S)-pyrrolidin-3-yloxy]pyridin-2-amine]

Same assay, conditions: HPK1 ADP-Glo assay, high ATP (200 μM ATP, 5 nM HPK1); read-out: Biochemical Potency (high ATP)

IC50 | SMILES
< 100 nM | Cc1cc(Nc2cc3nc(-c4cccc(C(=O)N(C)[C@@H]5CCOC5)c4)sc3cn2)nc(N2C[C@@H]3C[C@H]2CN3CCO)n1 [Example 559]

Same assay, conditions: HPK1 ADP-Glo assay, low ATP (10 μM ATP, 2 nM HPK1); read-out: Biochemical Potency (low ATP)

IC50 | SMILES
< 100 nM | Cc1ccnn1-c1nc2cc(Nc3ccc4c(n3)C(C)(N)CCC4)ncc2s1 (centres unmarked) [Example 580]
< 100 nM | Cc1cccnc1-c1nc2cc(Nc3ccc4c(n3)[C@@](C)(N)CCC4)ncc2s1 [Example 578]
< 100 nM | CN1C[C@@H]2C[C@H]1CN2c1nccc(Nc2cc3nc(-c4cccc(C(C)(C)O)c4)sc3cn2)n1 [Example 419]
< 100 nM | Cc1cccnc1-c1nc2cc(Nc3ccc4c(n3)[C@H](N)CC4)ncc2s1 [Example 582]
< 100 nM | CC(C)(O)c1cc(-c2nc3cc(Nc4cc(C5CCOCC5)nc(N5C[C@@H]6C[C@H]5CN6)n4)ncc3s2)ccn1 [Example 441]
